Experimental data from paper PMC5484173, “CB1 Allosteric Modulator Org27569 Is an Antagonist/Inverse Agonist of ERK1/2 Signaling” (Cannabis and Cannabinoid Research, 2016).
Values joined by “and” are separate entries in the source; they are usually repeats but may differ in a detail not shown here. Equal entries are not always repeated. “Also recorded” adds a separate entry of the source. Where two headings read alike, the source gives them in different places.

Columns and labels:
GFP-rat CB1 receptor = target: T1, GFP-rat CB1 receptor (Rattus norvegicus, UniProt P20272); assay: Receptor internalization (puncta count) in GFP-rat CB1 HEK293 cells; type: cell-based; settings: 20-120 min
T1 construct: expressed in transfected cells
Description: (§1) Vendor authenticated human embryonic kidney (HEK293; American Type Culture Collection, Rockville, MD) cells were cultured in 5% fetal bovine serum (FBS) defined (Hyclone Labs, Logan, UT) in Dulbecco's modified Eagle's medium (DMEM; Corning Cellgro, Manassas, VA) at 37°C and 5% CO2. Cell lines were generated as previously described[32] by transfection of the untagged hCB1 or N-terminally green fluorescent protein (GFP)-tagged rat CB1 receptor with Lipofectamine 2000 (Life Technologies, Gaithersburg, MD). Cells were maintained in a culture medium with geneticin (0.5 mg/mL; G418) and not used after 25 passages.
(§2) Cells were plated in poly-D-lysine (PDL)-coated 6-well plates or 100-mm dishes (for fractionation experiments) to a confluency of ∼70–80% and serum starved for 24 h before all treatments. For internalization experiments, cells were plated on PDL-coated cover-slips in a 24-well format. For experiments examining Gi/o protein mediation, cells were exposed to PTX (200 ng/mL) for 18 h before drug treatment when appropriate.
For internalization experiments, GFP-rat CB1 HEK293 cells were plated on PDL-coated cover-slips in the 24-well format and treated with vehicle (0.2% DMSO), CP55,940 (1 μM), Org27569 (10 μM), or both for 20–120 min. Cell images were taken blinded, converted to grayscale in Photoshop CS5, and then analyzed in ImageJ. Background was subtracted by using a “rolling ball” algorithm (rolling=3). Puncta within the range (size=3–400, circularity=0.01–1.00) were counted. These parameters were used based on image resolution and brightness. The same conditions were applied to all the images and image analyses.

[1] = target: T2, human cannabinoid type-1 receptor (hCB1) (Homo sapiens, UniProt P21554); type: cell-based
T2 construct: expressed in transfected cells

[2] = system: hCB1-untransfected HEK293 cells; assay: phospho-ERK1/2 western blot in hCB1-untransfected HEK293 cells; type: cell-based, human; settings: Org27569 10 μM, 20-min treatment
Description: as §1, with “passages. […]” for “passages.”
Protein amount (20 μg) was determined by the Bradford method, separated by 10% SDS-PAGE, and transferred to nitrocellulose membranes. […]
Membranes were rinsed thrice in 0.1% Tween-20 in PBS before incubating with LiCor secondary antibodies (IRDye® 800CW Goat anti-Mouse; 1:6666; IRDye 680RD Goat anti-Rabbit; 1:10,000) at room temperature for 1 h. Blots were imaged using LiCor Odyssey imaging software, and phospho-ERK signal was normalized to total ERK and data expressed as percent of vehicle control. […]
Data were normalized as percent vehicle control and analyzed by one- or two-way ANOVA with Newman–Keuls and Bonferroni post hoc tests, and data were considered significant with p<0.05. […]

CB1 = system: CB1; set-up: method as in PMID 26044547; settings: Chinese hamster ovary cells, AlphaScreen SureFire kit; cited from earlier work
[3] = target: T2, human cannabinoid type-1 receptor (hCB1); assay: Subcellular fractionation: phospho-ERK in nuclear-enriched and cytosolic fractions of hCB1 HEK293 cells; type: cell-based; settings: Org27569 10 μM, 20 min, normalized to beta-actin
Description: as §2
Cells were treated by application of vehicle or antagonist followed immediately by application of vehicle or agonist and incubated in serum-free DMEM at 37°C for times indicated, then washed once with ice-cold phosphate-buffered saline (PBS), and lysed with buffer containing HEPES (50 mM), NaCl (150 mM), EDTA (1 mM), EGTA (1 mM), glycerol (10%), Triton X-100 (1%), MgCl2 (10 μM), NaF (25 mM), Na3VO4 (1 mM), para-nitrophenyl phosphate (20 mM) and EDTA-free protease inhibitor. Lysates were incubated on ice for 30 min, then centrifuged at 16,000 g for 30 min at 4°C, and supernatants were collected.
Cells were grown and treated as described above on 100-mm dishes and washed once with ice-cold PBS. […]
The initial S1 fraction was centrifuged at 10,000 g for 10 min and the resulting S2 fraction served as the cytosolic/membrane fraction. Protein was determined by the NanoDrop™ A280 assay (Thermo Scientific, Wilmington, DE). […]

T2 sequence (P21554 whole entry): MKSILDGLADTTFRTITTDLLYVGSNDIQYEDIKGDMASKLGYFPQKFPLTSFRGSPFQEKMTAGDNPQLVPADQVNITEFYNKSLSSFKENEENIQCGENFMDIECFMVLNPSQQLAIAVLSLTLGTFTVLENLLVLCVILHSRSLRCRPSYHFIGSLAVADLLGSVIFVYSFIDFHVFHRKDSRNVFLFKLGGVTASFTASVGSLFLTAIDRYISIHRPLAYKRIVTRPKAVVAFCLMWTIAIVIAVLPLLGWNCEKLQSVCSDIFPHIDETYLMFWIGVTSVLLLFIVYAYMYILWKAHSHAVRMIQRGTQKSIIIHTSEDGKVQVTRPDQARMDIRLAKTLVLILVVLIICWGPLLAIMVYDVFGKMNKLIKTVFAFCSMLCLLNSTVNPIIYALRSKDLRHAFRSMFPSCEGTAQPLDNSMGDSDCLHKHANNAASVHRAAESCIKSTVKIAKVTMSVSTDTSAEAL
T1 sequence (P20272 whole entry): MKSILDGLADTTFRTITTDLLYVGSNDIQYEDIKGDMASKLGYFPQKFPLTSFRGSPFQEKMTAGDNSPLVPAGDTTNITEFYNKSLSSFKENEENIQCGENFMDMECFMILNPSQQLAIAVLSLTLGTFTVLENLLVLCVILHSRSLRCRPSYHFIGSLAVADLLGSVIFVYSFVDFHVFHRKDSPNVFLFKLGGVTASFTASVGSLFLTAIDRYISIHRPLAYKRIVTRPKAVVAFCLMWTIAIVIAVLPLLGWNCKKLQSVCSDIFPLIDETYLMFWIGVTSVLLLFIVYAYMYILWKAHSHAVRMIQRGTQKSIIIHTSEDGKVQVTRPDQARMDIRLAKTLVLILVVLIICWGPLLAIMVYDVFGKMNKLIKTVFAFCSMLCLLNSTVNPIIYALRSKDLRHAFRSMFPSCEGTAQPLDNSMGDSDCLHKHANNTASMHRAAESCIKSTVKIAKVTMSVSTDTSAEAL

CCCCCCC(C)(C)c1ccc([C@@H]2C[C@H](O)CC[C@H]2CCCO)c(O)c1 [CP55,940]
receptor internalization (puncta), agonist alone (GFP-rat CB1 receptor; CP55,940 1 μM): increases in puncta
EC80 for ERK activation [1]: 6.1 nM
effect on ERK phosphorylation, agonist alone [1]: robust increase in ERK phosphorylation

CCc1c(C(=O)NCCc2ccc(N3CCCCC3)cc2)[nH]c2ccc(Cl)cc12 [Org27569]
receptor internalization, compound alone (GFP-rat CB1 receptor; Org27569 10 μM alone): did not significantly affect receptor internalization
effect on CP55,940-induced receptor internalization (increases in puncta) (GFP-rat CB1 receptor; Org27569 10 μM with CP55,940 1 μM): prevented
effect on basal ERK phosphorylation [2]: not in hCB1-untransfected HEK293 cells
effect on THC-induced ERK activation (CB1): no effect
bottom of the fit curve (phospho-ERK, percent of vehicle control) [1]: 111.3%±7.72%
effect on CP55,940-induced activation of ERK [1]: prevented CP55,940-induced activation of ERK
extent of antagonism of 2-AG-stimulated ERK activation [1]: did not completely attenuate
extent of antagonism of CP55,940-induced ERK activation [1]: fully antagonized
extent of antagonism of THC-induced ERK activation [1]: did not completely attenuate
pIC50±SE on ERK phosphorylation [1]: 6.78±0.273 and 6.783±0.273
effect on ERK phosphorylation, compound alone ([1]; 10.0 μM alone, 5-min incubation): small but nonsignificant reduction of ERK phosphorylation
effect on phospho-ERK levels in PTX-treated cells ([1]; Org27569 10.0 μM, 20 min, after overnight PTX (200 ng/mL)): not in PTX-treated cells
effect on basal ERK phosphorylation ([1]; Org27569 alone (10 μM), 20-min treatment, hCB1-transfected HEK293 cells, no PTX): significantly reduced basal ERK phosphorylation; also recorded: reduced basal ERK phosphorylation in hCB1-transfected; also recorded: produced a reduction in phospho-ERK levels in control cells
bottom of the fit curve (phospho-ERK, percent of vehicle control) ([1]; Org27569 concentration-response against 2-AG at EC80 (1.2 μM), 5 min): 196%±123.2%
pIC50±SE on ERK phosphorylation ([1]; no probe agonist (alone, basal ERK phosphorylation), 20 min): 6.86±0.214
IC50 ([1]; no probe agonist (alone, basal ERK phosphorylation), cells treated for 20 min): 139 nM
pIC50±SE on ERK phosphorylation ([1]; probe agonist 2-AG (1.2 μM, EC80), 5 min): 6.26±0.239
IC50 ([1]; probe agonist 2-AG (1.2 μM, EC80), cells treated for 5 min, read-out: IC50 on ERK phosphorylation): 546 nM
pIC50±SE on ERK phosphorylation ([1]; probe agonist THC (494 nM in table, 500 nM in text; EC80), 5 min): 6.38±0.394
IC50 ([1]; probe agonist THC (494 nM, EC80), cells treated for 5 min, read-out: IC50 on ERK phosphorylation): 417 nM
IC50 ([1]; read-out: IC50 on ERK phosphorylation): 165 nM
effect on cytosolic phospho-ERK levels ([3]; cytosolic fraction): significantly decreased
effect on nuclear phospho-ERK levels ([3]; nuclear-enriched fraction): significantly decreased

CCCCC/C=C\C/C=C\C/C=C\C/C=C\CCCC(=O)OC(CO)CO [2-AG, 2-arachidonoylglycerol]
EC80 for ERK activation ([1]; agonist alone, hCB1 HEK293 cells, 5 min): 1200 nM
